The target in experiment [1] is T1, E. coli RecQ helicase (Escherichia coli, UniProt P15043). As to the kind of experiment: quenched-flow ATP hydrolysis, global fit. It is filed as biochemical. The following applies: SF50 buffer pH 7.5, 5 mM MgCl2, 50 mM NaCl, 25 °C; gamma-32P-ATP; read-out: DNA-free RecQ. An excerpt: quenched-flow ATP hydrolysis, global fit on E. coli RecQ helicase
In experiment [2] the target is T1, E. coli RecQ helicase. The experiment can be described thus: stopped-flow FRET binding kinetics. The following applies: association rate constant, Kd not given, SF50 buffer pH 7.5, 5 mM MgCl2, 25 °C, labelled compound. An excerpt:
stopped-flow FRET binding kinetics on E. coli RecQ helicase

For experiment [3], the target named is T1, E. coli RecQ helicase. As to the kind of experiment: stopped-flow FRET binding kinetics (k-1/k1). The settings on record: read-out: DNA-free RecQ. An excerpt:
stopped-flow FRET binding kinetics (k-1/k1) on E. coli RecQ helicase

T1 sequence (P15043 2-609): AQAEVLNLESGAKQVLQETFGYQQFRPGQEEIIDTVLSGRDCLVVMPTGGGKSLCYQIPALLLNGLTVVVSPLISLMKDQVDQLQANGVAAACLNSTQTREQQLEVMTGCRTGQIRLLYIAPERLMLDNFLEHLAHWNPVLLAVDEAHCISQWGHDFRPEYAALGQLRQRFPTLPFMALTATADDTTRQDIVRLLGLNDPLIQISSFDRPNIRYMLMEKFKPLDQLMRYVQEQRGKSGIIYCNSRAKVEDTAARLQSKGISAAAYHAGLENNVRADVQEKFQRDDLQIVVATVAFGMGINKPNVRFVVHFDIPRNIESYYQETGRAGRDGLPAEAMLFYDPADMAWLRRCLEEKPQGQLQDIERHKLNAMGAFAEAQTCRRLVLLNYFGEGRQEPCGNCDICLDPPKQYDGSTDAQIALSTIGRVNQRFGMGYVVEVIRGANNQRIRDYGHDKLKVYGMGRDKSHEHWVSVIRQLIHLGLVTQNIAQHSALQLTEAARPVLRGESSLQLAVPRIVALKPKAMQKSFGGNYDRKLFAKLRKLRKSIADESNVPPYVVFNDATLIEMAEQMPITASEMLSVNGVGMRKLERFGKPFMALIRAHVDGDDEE

As for `Nc1ncnc2c1ncn2[C@@H]1O[C@H](COP(=O)(O)OP(=O)(O)OP(=O)(O)O)[C@@H](O)[C@H]1O` [ATP], on E. coli RecQ helicase [1], the Kd turned out to be 120 ± 30 µM.
As to `CNc1ccccc1C(=O)O[C@H]1C[C@H](n2cnc3c(N)ncnc32)O[C@@H]1COP(=O)(O)OP(=O)(O)O` [mdADP], at E. coli RecQ helicase [2], the “DNA-free RecQ” value worked out at 4.5 ± 0.5 µM⁻¹ s⁻¹.
For `CNc1ccccc1C(=O)O[C@H]1C[C@H](n2cnc3c(N)ncnc32)O[C@@H]1COP(=O)(O)OP(=O)(O)OP(=O)(O)O` [mdATP, 3′-(N-methylanthraniloyl)-2′-deoxy-ATP], the Kd at E. coli RecQ helicase [3] is 15 ± 2 µM.

These data come from publication PMC4333385 (Nucleic Acids Research, 2014).
